# pIC50: −log10 of the molar value.
# Experiments:
# HER2 INS YVMA = molecular target: T1, HER2 INS YVMA (Homo sapiens, UniProt P04626, INS775YVMA); test: Lance Kinase Activity Assay, HER2 INS YVMA (Her2 Exon 20 INSYVMA Lance); type: biochemical; details: biochemical Lance assay
# T1 construct: purchased DPF
# Method in brief: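 Kinase phosphorylates a ULight-labelled peptide substrate; Eu anti-phospho antibody gives TR-FRET (ex 340 nm, em 665/615 nm). Compounds in 1:3 serial dilution over 8 steps, reaction started with ATP, 1 h at room temperature, stopped with EDTA-containing detection mix for 1 h. IC50 from sigmoidal dose-response curves.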
# [1] = molecular target: Her2 Exon 20 INSYVMA Ba/F3 (Homo sapiens, UniProt P04626, DUP772-775, cells depend on it); test: Her2 Exon 20 INSYVMA Ba/F3 CellTiter-Glo; type: cell-based; details: CellTiter-Glo, 72 h, read-out: Her2 Exon 20 INSYVMA Ba/F3 CTG IC50
# Method in brief: (§1)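 Seed Ba/F3 cells; 24 h, 37 °C/5% CO2. Add cpds in DMSO, multiple concs; 72 h. CellTiter-Glo, 10 min RT, luminescence. IC50 by curve fit. Z′ ≥0.5 from DMSO vs 10 μM staurosporine.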
# [2] = molecular target: EGFR Exon 20 INSNPH Ba/F3 (Homo sapiens, UniProt P00533, DUP771-773, cells depend on it); test: EGFR Exon 20 INSNPH Ba/F3 CellTiter-Glo; type: cell-based; details: CellTiter-Glo, 72 h, read-out: EGFR Exon 20 INSNPH Ba/F3 CTG IC50
# Method in brief: as §1
# EGFR T790ML858R = EGFR T790ML858R (Homo sapiens, UniProt P00533, L858R/T790M); test: EGFR T790ML858R Lance assay; type: biochemical
# Experimental: (§2) Inhibition is indicated as […] [nM] (“−”=not measured). Compounds having an activity designated as “A” provided an IC50≤100 nM; compounds having an activity designated as “B” provided an 100 nM<IC50≤500 nM; compounds having an activity designated as “C” provided an 500 nM<IC50≤1000 nM; compounds having an activity designated as “D” provided an 1000 nM<IC50≤100000 nM; and compounds having an activity designated as “E” provided an IC50>10000 nM.
# EGFR wt = EGFR wt (Homo sapiens, UniProt P00533); test: EGFR wt Lance assay; type: biochemical
# Experimental: as §2
# H1975 = H1975 CellTiter-Glo; type: cell-based; details: Homo sapiens, NCI-H1975; 72 h compound incubation; read-out: H1975 CTG IC50
# Method in brief: (§3)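 Luminescence from cellular ATP serves as the viability signal after cells are treated with compound dilutions for 72 h at 37° C. IC50 is derived by curve fitting, with DMSO-treated and 10 μM Staurosporine-treated wells defining the assay window.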
# A431 = A431 CellTiter-Glo; type: cell-based; details: Homo sapiens, A-431; 72 h compound incubation; read-out: A431 CTG IC50
# Method in brief: as §3
# T1 sequence (P04626 with tags, fused parts or gaps INS775YVMA): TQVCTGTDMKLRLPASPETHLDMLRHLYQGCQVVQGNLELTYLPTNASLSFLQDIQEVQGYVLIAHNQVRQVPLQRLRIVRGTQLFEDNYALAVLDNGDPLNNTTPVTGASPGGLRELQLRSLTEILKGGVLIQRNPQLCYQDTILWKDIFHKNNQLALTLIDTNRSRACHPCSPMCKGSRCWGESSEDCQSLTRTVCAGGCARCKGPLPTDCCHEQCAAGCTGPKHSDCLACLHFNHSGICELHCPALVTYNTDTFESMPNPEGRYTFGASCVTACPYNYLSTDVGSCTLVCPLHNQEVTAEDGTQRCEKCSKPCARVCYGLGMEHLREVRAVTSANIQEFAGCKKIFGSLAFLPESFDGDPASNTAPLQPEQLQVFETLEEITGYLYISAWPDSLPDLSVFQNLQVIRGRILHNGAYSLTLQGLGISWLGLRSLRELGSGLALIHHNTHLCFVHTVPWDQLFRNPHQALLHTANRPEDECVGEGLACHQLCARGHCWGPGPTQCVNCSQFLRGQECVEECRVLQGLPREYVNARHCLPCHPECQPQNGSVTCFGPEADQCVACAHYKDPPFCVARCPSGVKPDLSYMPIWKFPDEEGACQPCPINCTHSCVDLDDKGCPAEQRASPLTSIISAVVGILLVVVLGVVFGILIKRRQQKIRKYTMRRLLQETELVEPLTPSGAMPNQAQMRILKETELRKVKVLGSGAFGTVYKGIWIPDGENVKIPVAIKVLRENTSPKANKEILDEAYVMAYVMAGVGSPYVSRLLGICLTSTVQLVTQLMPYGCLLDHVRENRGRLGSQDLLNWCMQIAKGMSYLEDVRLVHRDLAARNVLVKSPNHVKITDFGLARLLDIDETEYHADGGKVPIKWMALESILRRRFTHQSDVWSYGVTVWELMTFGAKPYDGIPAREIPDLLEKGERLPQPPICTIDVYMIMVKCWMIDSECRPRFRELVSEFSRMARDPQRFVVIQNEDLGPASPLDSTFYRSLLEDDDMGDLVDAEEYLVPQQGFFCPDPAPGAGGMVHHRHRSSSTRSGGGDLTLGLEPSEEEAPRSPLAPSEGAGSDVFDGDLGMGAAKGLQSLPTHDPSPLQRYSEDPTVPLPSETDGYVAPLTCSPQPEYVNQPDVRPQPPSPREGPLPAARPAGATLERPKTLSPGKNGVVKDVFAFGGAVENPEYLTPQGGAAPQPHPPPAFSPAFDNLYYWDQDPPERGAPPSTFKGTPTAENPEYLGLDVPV
# Sequence of EGFR T790ML858R (P00533 25-1210 T790M/L858R): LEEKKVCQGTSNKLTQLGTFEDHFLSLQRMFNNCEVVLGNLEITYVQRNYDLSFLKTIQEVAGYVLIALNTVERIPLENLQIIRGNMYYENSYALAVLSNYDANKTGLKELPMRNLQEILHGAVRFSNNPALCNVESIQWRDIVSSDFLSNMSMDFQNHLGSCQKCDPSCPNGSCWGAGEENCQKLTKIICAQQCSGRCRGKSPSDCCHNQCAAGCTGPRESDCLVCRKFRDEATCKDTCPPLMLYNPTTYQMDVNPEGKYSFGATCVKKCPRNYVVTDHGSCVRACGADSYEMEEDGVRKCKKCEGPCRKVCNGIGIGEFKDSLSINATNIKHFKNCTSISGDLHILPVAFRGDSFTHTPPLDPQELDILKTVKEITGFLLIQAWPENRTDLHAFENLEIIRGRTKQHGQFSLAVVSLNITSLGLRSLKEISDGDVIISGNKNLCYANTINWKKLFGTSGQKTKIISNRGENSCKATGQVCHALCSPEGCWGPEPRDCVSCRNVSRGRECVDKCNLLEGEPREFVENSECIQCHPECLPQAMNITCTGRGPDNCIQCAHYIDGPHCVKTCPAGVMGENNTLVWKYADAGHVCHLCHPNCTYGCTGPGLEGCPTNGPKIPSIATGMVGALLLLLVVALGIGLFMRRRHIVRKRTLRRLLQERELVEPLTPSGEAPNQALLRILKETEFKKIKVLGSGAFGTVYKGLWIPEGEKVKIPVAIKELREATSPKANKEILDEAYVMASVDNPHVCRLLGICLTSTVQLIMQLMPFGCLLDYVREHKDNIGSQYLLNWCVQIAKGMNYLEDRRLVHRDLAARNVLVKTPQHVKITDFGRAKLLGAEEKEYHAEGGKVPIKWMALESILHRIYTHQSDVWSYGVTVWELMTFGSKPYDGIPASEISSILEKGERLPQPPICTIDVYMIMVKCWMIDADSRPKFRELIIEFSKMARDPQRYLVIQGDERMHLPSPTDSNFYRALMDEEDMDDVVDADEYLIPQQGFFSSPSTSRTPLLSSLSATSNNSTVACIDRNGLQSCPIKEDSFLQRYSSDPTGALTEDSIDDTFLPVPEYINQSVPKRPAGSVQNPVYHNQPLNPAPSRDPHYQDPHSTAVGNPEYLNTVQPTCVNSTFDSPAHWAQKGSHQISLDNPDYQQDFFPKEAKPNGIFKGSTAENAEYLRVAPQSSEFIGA
# Sequence of EGFR Exon 20 INSNPH Ba/F3 (P00533 with tags, fused parts or gaps DUP771-773): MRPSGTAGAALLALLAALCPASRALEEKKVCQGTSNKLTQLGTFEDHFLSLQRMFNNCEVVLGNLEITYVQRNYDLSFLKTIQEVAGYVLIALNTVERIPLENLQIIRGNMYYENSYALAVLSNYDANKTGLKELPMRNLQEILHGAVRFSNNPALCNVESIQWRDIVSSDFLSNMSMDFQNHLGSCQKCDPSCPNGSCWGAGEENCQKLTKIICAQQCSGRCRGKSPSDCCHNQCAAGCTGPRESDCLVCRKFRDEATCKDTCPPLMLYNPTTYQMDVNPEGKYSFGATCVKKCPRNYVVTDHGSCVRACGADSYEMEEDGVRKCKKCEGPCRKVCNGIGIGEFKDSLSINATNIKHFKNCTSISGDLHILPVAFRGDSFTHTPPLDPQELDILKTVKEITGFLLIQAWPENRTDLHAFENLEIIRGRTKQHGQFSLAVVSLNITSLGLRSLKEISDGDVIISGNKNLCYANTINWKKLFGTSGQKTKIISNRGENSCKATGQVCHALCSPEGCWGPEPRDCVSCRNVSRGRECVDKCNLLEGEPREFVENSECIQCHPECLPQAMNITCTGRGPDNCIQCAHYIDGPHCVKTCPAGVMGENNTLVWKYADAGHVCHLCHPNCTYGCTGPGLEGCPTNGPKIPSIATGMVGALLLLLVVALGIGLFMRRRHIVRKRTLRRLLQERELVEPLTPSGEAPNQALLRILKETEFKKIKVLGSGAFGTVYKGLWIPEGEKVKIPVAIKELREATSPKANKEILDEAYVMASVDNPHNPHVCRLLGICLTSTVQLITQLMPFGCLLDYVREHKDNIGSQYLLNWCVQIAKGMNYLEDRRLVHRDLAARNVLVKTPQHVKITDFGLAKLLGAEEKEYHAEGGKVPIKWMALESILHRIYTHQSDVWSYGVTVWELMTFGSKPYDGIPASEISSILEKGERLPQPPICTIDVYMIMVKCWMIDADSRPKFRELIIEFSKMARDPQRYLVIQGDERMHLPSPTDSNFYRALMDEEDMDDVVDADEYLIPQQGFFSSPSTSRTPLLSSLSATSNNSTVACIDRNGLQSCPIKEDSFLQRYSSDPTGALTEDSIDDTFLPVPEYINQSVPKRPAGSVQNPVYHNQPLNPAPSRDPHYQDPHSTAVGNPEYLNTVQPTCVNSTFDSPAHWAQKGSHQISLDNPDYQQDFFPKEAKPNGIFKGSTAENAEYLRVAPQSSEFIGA
# Sequence of Her2 Exon 20 INSYVMA Ba/F3 (P04626 with tags, fused parts or gaps DUP772-775): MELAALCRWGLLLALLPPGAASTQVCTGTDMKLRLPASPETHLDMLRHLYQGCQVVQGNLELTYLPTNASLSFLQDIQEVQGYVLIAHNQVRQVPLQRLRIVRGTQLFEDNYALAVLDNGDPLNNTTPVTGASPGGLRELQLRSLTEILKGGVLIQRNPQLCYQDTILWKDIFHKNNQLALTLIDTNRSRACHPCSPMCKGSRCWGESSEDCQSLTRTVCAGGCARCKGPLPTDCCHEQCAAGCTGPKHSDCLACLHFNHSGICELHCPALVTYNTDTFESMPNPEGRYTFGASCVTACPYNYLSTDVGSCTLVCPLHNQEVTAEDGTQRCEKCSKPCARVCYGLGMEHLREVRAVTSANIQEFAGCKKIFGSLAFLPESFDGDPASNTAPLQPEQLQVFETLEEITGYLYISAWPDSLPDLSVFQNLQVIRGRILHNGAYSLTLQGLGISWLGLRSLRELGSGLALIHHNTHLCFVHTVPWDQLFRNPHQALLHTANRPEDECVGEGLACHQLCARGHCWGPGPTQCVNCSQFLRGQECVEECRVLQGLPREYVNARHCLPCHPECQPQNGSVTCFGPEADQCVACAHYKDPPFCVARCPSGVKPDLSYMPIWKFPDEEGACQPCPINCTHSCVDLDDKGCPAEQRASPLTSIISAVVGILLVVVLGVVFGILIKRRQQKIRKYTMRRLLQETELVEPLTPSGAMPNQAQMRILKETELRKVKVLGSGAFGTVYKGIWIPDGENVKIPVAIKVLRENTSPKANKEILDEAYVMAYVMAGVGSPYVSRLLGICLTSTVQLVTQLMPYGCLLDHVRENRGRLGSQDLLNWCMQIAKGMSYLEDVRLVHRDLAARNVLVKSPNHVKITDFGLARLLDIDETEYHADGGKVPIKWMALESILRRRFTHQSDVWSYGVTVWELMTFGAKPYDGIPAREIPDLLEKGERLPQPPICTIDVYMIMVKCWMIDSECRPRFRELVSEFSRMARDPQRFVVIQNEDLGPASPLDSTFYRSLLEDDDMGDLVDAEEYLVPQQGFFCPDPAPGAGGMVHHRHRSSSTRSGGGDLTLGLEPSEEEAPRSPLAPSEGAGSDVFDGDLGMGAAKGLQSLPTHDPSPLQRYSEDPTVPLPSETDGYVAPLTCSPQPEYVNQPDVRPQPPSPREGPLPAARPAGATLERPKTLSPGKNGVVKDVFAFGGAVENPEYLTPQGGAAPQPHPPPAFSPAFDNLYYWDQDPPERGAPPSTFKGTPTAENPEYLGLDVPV
Structure (SMILES),pIC50 (HER2 INS YVMA),GI50 [1],GI50 [2],pIC50 (EGFR T790ML858R),pIC50 (EGFR wt),pIC50 (H1975),pIC50 (A431)
"C=CC(=O)Nc1cc(-c2c(-c3cnc(N4CCOCC4)nc3)[nH]c3ncc(C(=O)OC(C)C)cc23)ccc1C [Example 173, isopropyl 3-(3-acrylamido-4-methylphenyl)-2-(2-morpholinopyrimidin-5-yl)-1H-pyrrolo[2,3-b]pyridine-5-carboxylate]",< 5.00,1 to 10 µM,1 to 10 µM,4.00 to 6.00,6.00 to 6.30,4.00 to 6.00,4.00 to 6.00
"C#CC(=O)Nc1cc(-c2c(-c3ccc(N4CCN(C)CC4)cc3)[nH]c3nccc(Cl)c23)ccc1C [Example 144, N-(5-(4-chloro-2-(4-(4-methylpiperazin-1-yl)phenyl)-1H-pyrrolo[2,3-b]pyridin-3-yl)-2-methylphenyl)propiolamide 2,2,2-trifluoroacetate]",≥ 7.00,1 to 10 µM,1 to 10 µM,≥ 7.00,≥ 7.00,4.00 to 6.00,4.00 to 6.00
"C=CC(=O)Nc1cc(-c2c(-c3ccc(N4CCN(C)CC4)cc3)[nH]c3ncc(C(=O)NCC4CCN(C)CC4)cc23)ccc1C [Example 129, 3-(3-acrylamido-4-methylphenyl)-2-(4-(4-methylpiperazin-1-yl)phenyl)-N-((1-methylpiperidin-4-yl)methyl)-1H-pyrrolo[2,3-b]pyridine-5-carboxamide]",6.00 to 6.30,> 10 µM,> 10 µM,6.30 to 7.00,6.30 to 7.00,< 5.00,< 5.00
"C=CC(=O)Nc1cc(-c2c(-c3cccc(CN4CCN(C)CC4)c3)[nH]c3ncc(C(=O)OC(C)C)cc23)ccc1C [Example 181, isopropyl 3-(3-acrylamido-4-methylphenyl)-2-(3-((4-methylpiperazin-1-yl)methyl)phenyl)-1H-pyrrolo[2,3-b]pyridine-5-carboxylate]",≥ 7.00,0.5 to 1 µM,0.5 to 1 µM,≥ 7.00,≥ 7.00,6.00 to 6.30,4.00 to 6.00
"C=CC(=O)Nc1cc(-c2c(-c3ccc(CN(C)C)cc3)[nH]c3ncc(C(=O)OC(C)C)cc23)ccc1C [Example 151, isopropyl 3-(3-acrylamido-4-methylphenyl)-2-(4-((dimethylamino)methyl)phenyl)-1H-pyrrolo[2,3-b]pyridine-5-carboxylate]",≥ 7.00,0.1 to 0.5 µM,0.1 to 0.5 µM,≥ 7.00,≥ 7.00,6.30 to 7.00,4.00 to 6.00
"C=CC(=O)Nc1cc(-c2c(-c3ccc(N4CCN(C)CC4)cc3)[nH]c3ncc(C(=O)OC(C)C)cc23)c(C)cc1C [Example 202, isoproyl 3-(5-acrylamido-2,4-dimethylphenyl)-2-(4-(4-methylpiperazin-1-yl)phenyl)-1H-pyrrolo[2,3-b]pyridine-5-carboxylate 2,2,2-trifluoroacetate]",5.00 to 6.00,1 to 10 µM,1 to 10 µM,6.30 to 7.00,≥ 7.00,4.00 to 6.00,< 5.00
"C=CC(=O)Nc1cc(-c2c(-c3ccc(N4CCN(C)CC4)cc3)[nH]c3ncc(C(=O)NCc4nncn4C)cc23)ccc1C [Example 130, 3-(3-acrylamido-4-methylphenyl)-N-((4-methyl-4H-1,2,4-triazol-3-yl)methyl)-2-(4-(4-methylpiperazin-1-yl)phenyl)-1H-pyrrolo[2,3-b]pyridine-5-carboxamide]",6.30 to 7.00,> 10 µM,> 10 µM,6.30 to 7.00,≥ 7.00,< 5.00,< 5.00
"C=CC(=O)Nc1cc(-c2c(-c3ccc(N4CCN(C)CC4)cc3)[nH]c3ncc(CC(=O)OC(C)C)cc23)ccc1C [Example 190, isopropyl 2-(3-(3-acrylamido-4-methylphenyl)-2-(4-(4-methylpiperazin-1-yl)phenyl)-1H-pyrrolo[2,3-b]pyridin-5-yl)acetate 2,2,2-trifluoroacetate]",≥ 7.00,0.1 to 0.5 µM,0.1 to 0.5 µM,≥ 7.00,≥ 7.00,6.30 to 7.00,4.00 to 6.00
"C=CC(=O)N1CCCc2ccc(-c3c(-c4ccc(OCCN5CCCC5)cc4)[nH]c4nccc(Cl)c34)cc21 [Example 90, 1-(7-(4-chloro-2-(4-(2-(pyrrolidin-1-yl)ethoxy)phenyl)-1H-pyrrolo[2,3-b]pyridin-3-yl)-3,4-dihydroquinolin-1(2H)-yl)prop-2-en-1-one]",≥ 7.00,0.5 to 1 µM,1 to 10 µM,≥ 7.00,≥ 7.00,6.30 to 7.00,4.00 to 6.00
"C=CC(=O)Nc1cc(-c2c(-c3ccnc(N4CCN(C)CC4)c3)[nH]c3ncc(C(=O)OC(C)C)cc23)ccc1C [Example 156, isoproyl 3-(3-acrylamido-4-methylphenyl)-2-(2-(4-methylpiperazin-1-yl)pyridin-4-yl)-1H-pyrrolo[2,3-b]pyridine-5-carboxylate 2,2,2-trifluoroacetate]",≥ 7.00,0.1 to 0.5 µM,0.1 to 0.5 µM,≥ 7.00,≥ 7.00,6.00 to 6.30,4.00 to 6.00
"C=CC(=O)N1CCc2ccc(-c3c(-c4ccc(N5CCN(C)CC5)cc4)[nH]c4ncc(C(=O)OC(C)C)cc34)cc21 [Example 192, isoproyl 3-(1-acryloylindolin-6-yl)-2-(4-(4-methylpiperazin-1-yl)phenyl)-1H-pyrrolo[2,3-b]pyridine-5-carboxylate 2,2,2-trifluoroacetate]",≥ 7.00,0.1 to 0.5 µM,0.5 to 1 µM,≥ 7.00,≥ 7.00,4.00 to 6.00,4.00 to 6.00
"C=CC(=O)Nc1cc(-c2c(-c3ccc(N4CCN(C)CC4)cc3)[nH]c3ncc(C(=O)OC4COC4)cc23)ccc1C [Example 141, oxetan-3-yl 3-(3-acrylamido-4-methylphenyl)-2-(4-(4-methylpiperazin-1-yl)phenyl)-1H-pyrrolo[2,3-b]pyridine-5-carboxylate]",≥ 7.00,0.5 to 1 µM,0.5 to 1 µM,≥ 7.00,≥ 7.00,6.30 to 7.00,4.00 to 6.00
"C=CC(=O)Nc1cc(-c2c(-c3ccc(N4CCN(C)CC4)nc3)[nH]c3ncc(C(=O)OC(C)C)cc23)cc(F)c1C [Example 174, isopropyl 3-(3-acrylamido-5-fluoro-4-methylphenyl)-2-(6-(4-methylpiperazin-1-yl)pyridin-3-yl)-1H-pyrrolo[2,3-b]pyridine-5-carboxylate]",≥ 7.00,0.5 to 1 µM,0.1 to 0.5 µM,≥ 7.00,≥ 7.00,6.00 to 6.30,4.00 to 6.00
"C=CC(=O)N1CCCc2ccc(-c3c(-c4cccc(OCCN5CCCC5)c4)[nH]c4nccc(Cl)c34)cc21 [Example 94, 1-(7-(4-chloro-2-(3-(2-(pyrrolidin-1-yl)ethoxy)phenyl)-1H-pyrrolo[2,3-b]pyridin-3-yl)-3,4-dihydroquinolin-1(2H)-yl)prop-2-en-1-one]",≥ 7.00,1 to 10 µM,1 to 10 µM,≥ 7.00,≥ 7.00,6.30 to 7.00,4.00 to 6.00
"C/C=C/C(=O)Nc1cc(-c2c(-c3ccc(N4CCN(C)CC4)cc3)[nH]c3nccc(Cl)c23)ccc1C [Example 142, (E)-N-(5-(4-chloro-2-(4-(4-methylpiperazin-1-yl)phenyl)-1H-pyrrolo[2,3-b]pyridin-3-yl)-2-methylphenyl)but-2-enamide 2,2,2-trifluoroacetate]",6.00 to 6.30,1 to 10 µM,1 to 10 µM,≥ 7.00,≥ 7.00,6.30 to 7.00,4.00 to 6.00
"C=CC(=O)Nc1cc(-c2c(-c3ccnc(N4CCOCC4)c3)[nH]c3ncc(C(=O)OC(C)C)cc23)ccc1C [Example 166, isopropyl 3-(3-acrylamido-4-methylphenyl)-2-(2-morpholinopyridin-4-yl)-1H-pyrrolo[2,3-b]pyridine-5-carboxylate]",6.00 to 6.30,1 to 10 µM,1 to 10 µM,6.30 to 7.00,≥ 7.00,4.00 to 6.00,4.00 to 6.00

# Reference: US20220370440A1 (Lead Discovery Center GmbH, priority 2018, published 2022)
